Several values for one entry are separate records, joined by “and”; a condition that tells them apart may be missing. Identical values can stand only once.

For one data set, the system named is rats. Details: method as in Thermo Fisher Scientific Safety Sheet data. The conditions noted are these: oral in rats; ref Thermo Fisher Scientific Safety Sheet data; cited from earlier work.
The target in data set [1] is T1, PXR (Homo sapiens, UniProt O75469).
T1 sequence (O75469 1-434): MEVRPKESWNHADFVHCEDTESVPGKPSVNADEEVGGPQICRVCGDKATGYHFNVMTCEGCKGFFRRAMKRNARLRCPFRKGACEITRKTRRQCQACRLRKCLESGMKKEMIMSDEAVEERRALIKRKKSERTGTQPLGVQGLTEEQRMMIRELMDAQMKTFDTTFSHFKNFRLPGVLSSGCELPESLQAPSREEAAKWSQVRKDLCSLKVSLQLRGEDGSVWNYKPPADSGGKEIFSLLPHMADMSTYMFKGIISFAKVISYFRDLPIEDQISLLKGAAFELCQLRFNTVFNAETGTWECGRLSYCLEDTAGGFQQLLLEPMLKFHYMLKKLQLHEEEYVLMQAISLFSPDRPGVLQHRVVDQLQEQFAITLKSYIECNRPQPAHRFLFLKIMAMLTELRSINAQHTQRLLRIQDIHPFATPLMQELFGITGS
The data set is described as follows: PXR reporter (p3A4-luc luciferase) assay in LS180 cells transiently transfected with wild-type PXR. The conditions noted are these: for FOLD INDUCTION of PXR reporter luciferase activity: 24 h, over UT. The procedure:
Incubations were performed in four technical replicates. After the treatments, cells were lysed and luciferase activity was measured on Tecan Infinite M200 Pro plate reader (Schoeller Instruments, Prague, Czech Republic). The data are expressed as fold induction ± SD of luciferase activity over the control cells (agonistic mode—in the absence of a model ligand) or as a percentage of maximal activation ± SD (antagonistic mode—in the presence of a model ligand). […] For all the transfection experiments, specifically multiplexed transfections, the control wells were mock‐transfected ([…]). However, to exclude non‐specific binding of PXR (or other factors) upstream of the luciferase gene within non‐PXR‐binding elements, we performed pilot experiments in different cell passages (P11, P14, and P17) of LS174T cells using a mock luciferase plasmid (luciferase not containing an upstream PXR‐binding element of the CYP3A4 promoter).

The target in the next data set is T2, AhR (Homo sapiens, UniProt P35869).
T2 construct: endogenous in cells; host or cells: AZ-AHR (HepG2)
T2 sequence (P35869 11-848): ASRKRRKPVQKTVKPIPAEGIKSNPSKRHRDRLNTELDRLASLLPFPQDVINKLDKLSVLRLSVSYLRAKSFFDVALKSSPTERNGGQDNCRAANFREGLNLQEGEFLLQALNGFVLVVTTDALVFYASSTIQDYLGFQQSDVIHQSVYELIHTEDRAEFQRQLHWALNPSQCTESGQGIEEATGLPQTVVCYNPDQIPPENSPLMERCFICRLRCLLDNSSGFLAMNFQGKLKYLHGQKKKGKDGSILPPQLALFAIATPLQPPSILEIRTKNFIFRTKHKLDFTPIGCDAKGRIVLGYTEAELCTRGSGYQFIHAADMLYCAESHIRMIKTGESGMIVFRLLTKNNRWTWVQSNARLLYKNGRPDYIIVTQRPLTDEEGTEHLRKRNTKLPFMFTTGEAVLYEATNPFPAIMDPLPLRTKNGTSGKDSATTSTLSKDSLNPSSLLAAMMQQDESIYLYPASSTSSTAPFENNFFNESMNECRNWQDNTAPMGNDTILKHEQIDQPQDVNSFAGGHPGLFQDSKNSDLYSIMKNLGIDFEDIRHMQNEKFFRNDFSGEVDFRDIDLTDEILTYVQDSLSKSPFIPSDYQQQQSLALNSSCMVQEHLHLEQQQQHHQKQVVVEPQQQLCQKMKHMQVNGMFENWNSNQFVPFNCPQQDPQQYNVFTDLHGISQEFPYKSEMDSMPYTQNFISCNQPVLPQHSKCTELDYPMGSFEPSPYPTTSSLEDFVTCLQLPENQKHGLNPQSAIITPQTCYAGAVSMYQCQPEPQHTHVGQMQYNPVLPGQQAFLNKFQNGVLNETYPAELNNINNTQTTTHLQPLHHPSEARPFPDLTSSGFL
Briefly: AhR reporter assay, HepG2 cells stably expressing pCYP1A1 luciferase (AZ-AHR). The format is cell-based. The settings on record: for FOLD INDUCTION (AZ-AHR luciferase): AZ-AHR cells, fold vs DMSO. The procedure:
Incubations were performed in four technical replicates.

For another data set, the system named is IL-8 mRNA. The data set is described as follows: TNF-α-induced IL-8 mRNA in human colonic enteroids (Calgary Protocol). The format is cell-based. The settings on record: 10 μM, pair-wise vs DMSO. The procedure: Samples were immediately processed to yield isolated colonic crypts as previously described (Fernando et al, 2017). Isolated colonic crypts were embedded in Matrigel® (Corning) and cultured in Intesticult^tm Organoid Growth Media. Human organoids were pretreated for 6 h with either FKK5, FKK6, FKK9, or vehicle (DMSO), then stimulated with human recombinant TNF‐alpha in the presence of either treatment for an additional 12 h. Organoids were washed in PBS, disrupted in Tri Reagent® (Sigma, Oakville, ON, CAN), and frozen at −80°C. After thawing, chloroform was added, samples were centrifuged for 15 min, and the resulting aqueous phase was then added to equal volumes of 70% ethanol and further processed using the RNeasy mini kit (Qiagen). cDNA was synthesized using the QuantiTect RT kit (Qiagen) according to the manufacturer's protocol. Resulting cDNA was used as a template for quantitative real‐time PCR using Perfecta SYBR Green FastMix with ROX (QuantaBio). PCR and analysis were performed using a StepOne PCR System (Applied Biosystems). Gene expression was calculated relative to β‐actin expression and expressed as fold change of control. The primers used were as follows: Human®‐Actin (NM_001101), Human CYP3A4 (NM_001202855), and Human ABCB1 (NM_000927).

Data set [2] concerns PXR occupancy of CYP3A4 and MDR1 promoter. The data set is described as follows: Chromatin immunoprecipitation (ChIP) in PXR-transfected LS174T cells. The settings on record: 10 μM; relative to DMSO = 1; each column a repeat experiment (Fig 1d).
Experimental: LS174T cells were transfected with pSG5‐PXR (2 μg/plate/1 × 10^7 cells). […] Briefly, cells were chemically cross‐linked with formaldehyde in culture media for 15 min at room temperature. […] Cells were rinsed twice with cold PBS (phosphate‐buffered saline) (pH 7.5) and scraped in PBS supplemented with PIC (protease inhibitor cocktail).
Cell pellets were collected and immediately resuspended in immunoprecipitation (IP) buffer (150 mM NaCl (sodium chloride), 50 mM Tris–HCl at pH 7.5, 5 mM EDTA (ethylenediaminetetraacetic acid), 0.5% NP‐40, 1% Triton X‐100). The nuclei were centrifuged at 12,000 × g for 1 min and resuspended in fresh IP buffer. Chromatin was sheared by sonication to an average size of 0.2‐0.9 kb. Lysates were cleared by centrifugation at 12,000 × g for 10 min. […] 10% (wt/vol) Chelex 100 was added to the beads followed by boiling of the suspension and centrifugation at 12,000 × g for 1 min to obtain chromatin.
Purified chromatin DNA was used to perform RT–qPCR. […] Data were analyzed using SDS 2.2.1 program (ABI Biotechnology).
In data set [3] the target is T1, PXR. The data set is described as follows: Ligand efficiency metric (LEM) analysis. The settings on record: NSEI-nBEI plane, from PXR reporter Emax. Details: expressed in transfected cells; host or cells: LS180. An excerpt:
Ligand efficiency metric (LEM) analysis for FKK ligand efficiency. The ligand efficiency metrics (LEMs) of compounds FKK1 to 10 and FKK999 as a reference compound, have been analyzed by using a web tool named AtlasCBS which represents LEMs as variables for a Cartesian mapping of chemico-biological space (CBS). In particular, Cartesian planes combine three critical variables in drug discovery (affinity, size, and polarity) into easily interpretable ‘efficiency planes’ useful to guide a drug discovery process. In the Cartesian plane, each target:ligand pair appears as a point whose coordinates are given by pairs of values derived from the affinity of the ligand toward the target (Ki or equivalent) in relation to its size (MW or number of non-hydrogen atoms NHA), and its polarity (expressed as Polar Surface Area, PSA, or number of polar atoms, NPOL = count of N + O). The first one represents a size-related LEM and the second a polarity-related LEM. Consistently, compounds that correspond to marketed drugs typically occupy the upper right quadrant of the plots (‘Nort h-East’ direction, NE), where both the efficiency -pe r-size and efficiency -per-polarity are optimized 1,2.
Our results are represented in the efficiency plane NS EI-nBEI where:
NSEI = –log Ki/NPOL (N, O) = pKi/NPOL (N, O)
As a measure of activity of the above compounds, the reciprocal of the percentage efficacy values (1/Efficacy [%]) obtained in the PXR-dependent luciferase activity test (Emax values from Fig. 1) were used in lieu of the affinity constants (Ki in the above equations). FKK4 would appear as the most efficient compound since it is placed in the NE panel (GL, unpublished observations). However, this congener might suffer from metabolic liability with its N-protecting group possibly generating toxic aldehydes by oxidative cleavage in vivo. Unambiguously, the two most efficient compounds besides FKK4 are FKK5 and FKK6 which were therefore considered suitable lead compounds, as al so

Take `c1ccc2[nH]ccc2c1` [indole]: the LD50 in the data set on rats is ~ 1 g/kg.
As to `CCOCn1c(C(O)(Cc2cc3ccccc3[nH]2)c2ccncc2)cc2ccccc21` (racemic) [FKK9], the “aver (mean luciferase signal of H1-H4)” value at PXR [1] (1 nM) is listed as 4233.7; on PXR [1] (10 nM), 4676.8; at PXR [1] (100 nM), 5944.0; on PXR [1] (1 uM), 19145.3; at PXR [1] (10 uM), 98175.8; on PXR [1] (25 uM), 68593.5. For the same compound, the “FOLD INDUCTION of PXR reporter luciferase activity” value at PXR [1] (1 nM) was determined as 1.1 fold; on PXR [1] (10 nM), 1.2 fold; on PXR [1] (100 nM) it was 1.6 fold; at PXR [1] (1 uM), 5.0 fold; at PXR [1] (10 uM), 25.8 fold; at PXR [1] (25 uM), 18.0 fold. The compound also showed an AhR activation on AhR (10 μM) above 100 fold. For the same compound, the “FOLD INDUCTION (AZ-AHR luciferase)” value is recorded as 0.6 fold at AhR (1 nM); 0.4 fold on AhR (10 nM); 1.3 fold at AhR (100 nM); 15.9 fold at AhR (1µM); 584.9 fold at AhR (10 µM). Also, in the data set on IL-8 mRNA, the “TNF-α-induced IL-8 mRNA levels” value is “did not show significant effects”. For the same compound, the “CYP3A4 Fold Expression (2-ΔΔCt)” value in data set [2] was 0.943 and 0.9893 and 1.172 and 1.777.
On to `CC#CC(O)(c1ccncc1)c1cc2ccccc2n1COCC` (stereo not shown) [FKK4], for which the “aver (mean luciferase signal of H1-H4)” value on PXR [1] (1 nM) came to 4365.5; at PXR [1] (10 nM), 4279.3; at PXR [1] (100 nM), 5499.3; at PXR [1] (1 uM), 21392.8; on PXR [1] (10 uM), 102793.8; on PXR [1] (25 uM), 122639.5. In addition, the “FOLD INDUCTION of PXR reporter luciferase activity” value is 1.4 fold on PXR [1] (1 nM); 1.3 fold on PXR [1] (10 nM); 1.7 fold on PXR [1] (100 nM); 6.7 fold at PXR [1] (1 uM); 32.2 fold on PXR [1] (10 uM); 38.4 fold at PXR [1] (25 uM). On AhR, the “AhR activation (in words)” value is on record as “variable degrees of dose‐dependent AhR activation profiles”. The “FOLD INDUCTION (AZ-AHR luciferase)” value on AhR (1 nM) is 0.8 fold; at AhR (10 nM) it was 0.644 fold; on AhR (100 nM), 0.8 fold; on AhR (1µM) it was 1.2 fold; at AhR (10 µM) it was 7.1 fold. The LEM analysis prediction result on PXR [3] is recorded as “efficient agonist”.

Source of the values: publication PMC7136958, “Targeting the pregnane X receptor using microbial metabolite mimicry” (EMBO Molecular Medicine, 2020).
